{"source": "patent US20260234616A1", "about": "“CELL-PENETRATING PEPTIDES, CONJUGATES THEREOF, AND METHODS OF THEIR USE” (PepGen Inc., priority 2022, published 2026)", "origin": "cited, not measured here", "system": "dystrophin", "conditions": "DMD patients; reported by the sponsor"}
{"substance": "eteplirsen", "values": [{"measurement": "levels of dystrophin restoration in patients", "result": "approximately 1 % of normal"}]}
